# Experiments:
# obese dogs [1] = assay: Clinical trial in obese dogs: serum insulin concentration (ELISA); format: in vivo; settings: for Insulin: serum
# Experimental: (§1) A total of 20 dogs were selected and divided into 4 groups with 5 dogs in each group: a normal obese control (OC); hereinafter, referred to as a control (OC)), an enavogliflozin 0.2-administered group, an enavogliflozin 0.5-administered group, and an enavogliflozin 1-administered group. The control was fed regular feed, and the enavogliflozin-administered groups were fed regular feed supplemented with enavogliflozin at doses of 0.2, 0.5, or 1 mg/kg, respectively. The feed was supplemented with enavogliflozin once a day for 8 weeks and given orally.
# Serum insulin concentrations were measured 2, 4, 6, 8, and 10 weeks after the start of enavogliflozin administration using a Quantikine Canine Insulin ELISA kit (Catalog no. DINS00, R&D Systems, Minneapolis, MN, USA) according to the manufacturer's protocol. Urine biochemical parameters were evaluated using urine test strips 2, 4, 6, and 10 weeks after the start of enavogliflozin administration, and urinary glucose (GLU) excretion was measured using UriSCAN® Strip (YD Diagnostics Corp., Yong-in, Korea).
# obese dogs [2] = assay: Clinical trial in obese dogs: urine test strips, urinary glucose excretion; format: in vivo
# Experimental: as §1
# Serum insulin concentrations were measured 2, 4, 6, 8, and 10 weeks after the start of enavogliflozin administration using a Quantikine Canine Insulin ELISA kit (Catalog no. DINS00, R&D Systems, Minneapolis, MN, USA) according to the manufacturer's protocol. […]
# [3] = 0.2 mg/kg once a day oral for 8 weeks, 10 weeks
# [4] = 0.2 mg/kg once a day oral, 2 weeks
# [5] = 0.2 mg/kg once a day oral, 4 weeks
# [6] = 0.2 mg/kg once a day oral, 6 weeks
# [7] = 0.2 mg/kg once a day oral, 8 weeks
# [8] = 0.5 mg/kg once a day oral for 8 weeks, 10 weeks
# [9] = 0.5 mg/kg once a day oral, 2 weeks
# [10] = 0.5 mg/kg once a day oral, 4 weeks
# [11] = 0.5 mg/kg once a day oral, 6 weeks
# [12] = 0.5 mg/kg once a day oral, 8 weeks
# [13] = 1 mg/kg once a day oral for 8 weeks, 10 weeks
# [14] = 1 mg/kg once a day oral, 2 weeks
# [15] = 1 mg/kg once a day oral, 4 weeks
# [16] = 1 mg/kg once a day oral, 6 weeks
# [17] = 1 mg/kg once a day oral, 8 weeks
smiles,measurement,setting,value
"OC[C@H]1O[C@@H](c2cc(Cc3ccc(C4CC4)cc3)c(Cl)c3c2CCO3)[C@H](O)[C@@H](O)[C@@H]1O [Enavogliflozin, enavogliflozin]",insulin concentration compared to the control (OC),obese dogs [1]; 0.5 mg/kg,significantly lower
same,serum insulin concentration compared to the control (OC),obese dogs [1]; all administration groups,decreased compared to the control (OC)
same,Insulin,obese dogs [1]; 0.2 mg/kg once a day oral for 8 weeks,126.60 ± 15.45 ng/mL
same,Insulin,obese dogs [1]; 0.5 mg/kg once a day oral for 8 weeks,99.82 ± 18.48 ng/mL
same,Insulin,obese dogs [1]; 1 mg/kg once a day oral for 8 weeks,110.75 ± 21.96 ng/mL
same,"Urine test - Glucose detection: number of dogs with grade +++, 3",obese dogs [2]; [3],2
same,"Urine test - Glucose detection: number of dogs with grade +++, 4",obese dogs [2]; [3],1
same,"Urine test - Glucose detection: number of dogs with grade ++, 2",obese dogs [2]; [3],1
same,"Urine test - Glucose detection: number of dogs with grade +, 1",obese dogs [2]; [3],1
same,"Urine test - Glucose detection: number of dogs with grade −, 0",obese dogs [2]; [3],0
same,"Urine test - Glucose detection: number of dogs with grade +++, 3",obese dogs [2]; [4],1
same,"Urine test - Glucose detection: number of dogs with grade +++, 4",obese dogs [2]; [4],1
same,"Urine test - Glucose detection: number of dogs with grade ++, 2",obese dogs [2]; [4],0
same,"Urine test - Glucose detection: number of dogs with grade +, 1",obese dogs [2]; [4],3
same,"Urine test - Glucose detection: number of dogs with grade −, 0",obese dogs [2]; [4],0
same,"Urine test - Glucose detection: number of dogs with grade +++, 3",obese dogs [2]; [5],1
same,"Urine test - Glucose detection: number of dogs with grade +++, 4",obese dogs [2]; [5],1
same,"Urine test - Glucose detection: number of dogs with grade ++, 2",obese dogs [2]; [5],1
same,"Urine test - Glucose detection: number of dogs with grade +, 1",obese dogs [2]; [5],2
same,"Urine test - Glucose detection: number of dogs with grade −, 0",obese dogs [2]; [5],0
same,"Urine test - Glucose detection: number of dogs with grade +++, 3",obese dogs [2]; [6],1
same,"Urine test - Glucose detection: number of dogs with grade +++, 4",obese dogs [2]; [6],1
same,"Urine test - Glucose detection: number of dogs with grade ++, 2",obese dogs [2]; [6],0
same,"Urine test - Glucose detection: number of dogs with grade +, 1",obese dogs [2]; [6],3
same,"Urine test - Glucose detection: number of dogs with grade −, 0",obese dogs [2]; [6],0
same,"Urine test - Glucose detection: number of dogs with grade +++, 3",obese dogs [2]; [7],1
same,"Urine test - Glucose detection: number of dogs with grade +++, 4",obese dogs [2]; [7],1
same,"Urine test - Glucose detection: number of dogs with grade ++, 2",obese dogs [2]; [7],2
same,"Urine test - Glucose detection: number of dogs with grade +, 1",obese dogs [2]; [7],1
same,"Urine test - Glucose detection: number of dogs with grade −, 0",obese dogs [2]; [7],0
same,"Urine test - Glucose detection: number of dogs with grade +++, 3",obese dogs [2]; [8],1
same,"Urine test - Glucose detection: number of dogs with grade +++, 4",obese dogs [2]; [8],1
same,"Urine test - Glucose detection: number of dogs with grade ++, 2",obese dogs [2]; [8],1
same,"Urine test - Glucose detection: number of dogs with grade +, 1",obese dogs [2]; [8],1
same,"Urine test - Glucose detection: number of dogs with grade −, 0",obese dogs [2]; [8],1
same,"Urine test - Glucose detection: number of dogs with grade +++, 3",obese dogs [2]; [9],0
same,"Urine test - Glucose detection: number of dogs with grade +++, 4",obese dogs [2]; [9],3
same,"Urine test - Glucose detection: number of dogs with grade ++, 2",obese dogs [2]; [9],1
same,"Urine test - Glucose detection: number of dogs with grade +, 1",obese dogs [2]; [9],1
same,"Urine test - Glucose detection: number of dogs with grade −, 0",obese dogs [2]; [9],0
same,"Urine test - Glucose detection: number of dogs with grade +++, 3",obese dogs [2]; [10],0
same,"Urine test - Glucose detection: number of dogs with grade +++, 4",obese dogs [2]; [10],5
same,"Urine test - Glucose detection: number of dogs with grade ++, 2",obese dogs [2]; [10],0
same,"Urine test - Glucose detection: number of dogs with grade +, 1",obese dogs [2]; [10],0
same,"Urine test - Glucose detection: number of dogs with grade −, 0",obese dogs [2]; [10],0
same,"Urine test - Glucose detection: number of dogs with grade +++, 3",obese dogs [2]; [11],0
same,"Urine test - Glucose detection: number of dogs with grade +++, 4",obese dogs [2]; [11],5
same,"Urine test - Glucose detection: number of dogs with grade ++, 2",obese dogs [2]; [11],0
same,"Urine test - Glucose detection: number of dogs with grade +, 1",obese dogs [2]; [11],0
same,"Urine test - Glucose detection: number of dogs with grade −, 0",obese dogs [2]; [11],0
same,"Urine test - Glucose detection: number of dogs with grade +++, 3",obese dogs [2]; [12],0
same,"Urine test - Glucose detection: number of dogs with grade +++, 4",obese dogs [2]; [12],4
same,"Urine test - Glucose detection: number of dogs with grade ++, 2",obese dogs [2]; [12],1
same,"Urine test - Glucose detection: number of dogs with grade +, 1",obese dogs [2]; [12],0
same,"Urine test - Glucose detection: number of dogs with grade −, 0",obese dogs [2]; [12],0
same,"Urine test - Glucose detection: number of dogs with grade +++, 3",obese dogs [2]; [13],1
same,"Urine test - Glucose detection: number of dogs with grade +++, 4",obese dogs [2]; [13],1
same,"Urine test - Glucose detection: number of dogs with grade ++, 2",obese dogs [2]; [13],0
same,"Urine test - Glucose detection: number of dogs with grade +, 1",obese dogs [2]; [13],0
same,"Urine test - Glucose detection: number of dogs with grade −, 0",obese dogs [2]; [13],3
same,"Urine test - Glucose detection: number of dogs with grade +++, 3",obese dogs [2]; [14],2
same,"Urine test - Glucose detection: number of dogs with grade +++, 4",obese dogs [2]; [14],3
same,"Urine test - Glucose detection: number of dogs with grade ++, 2",obese dogs [2]; [14],0
same,"Urine test - Glucose detection: number of dogs with grade +, 1",obese dogs [2]; [14],0
same,"Urine test - Glucose detection: number of dogs with grade −, 0",obese dogs [2]; [14],0
same,"Urine test - Glucose detection: number of dogs with grade +++, 3",obese dogs [2]; [15],0
same,"Urine test - Glucose detection: number of dogs with grade +++, 4",obese dogs [2]; [15],5
same,"Urine test - Glucose detection: number of dogs with grade ++, 2",obese dogs [2]; [15],0
same,"Urine test - Glucose detection: number of dogs with grade +, 1",obese dogs [2]; [15],0
same,"Urine test - Glucose detection: number of dogs with grade −, 0",obese dogs [2]; [15],0
same,"Urine test - Glucose detection: number of dogs with grade +++, 3",obese dogs [2]; [16],0
same,"Urine test - Glucose detection: number of dogs with grade +++, 4",obese dogs [2]; [16],5
same,"Urine test - Glucose detection: number of dogs with grade ++, 2",obese dogs [2]; [16],0
same,"Urine test - Glucose detection: number of dogs with grade +, 1",obese dogs [2]; [16],0
same,"Urine test - Glucose detection: number of dogs with grade −, 0",obese dogs [2]; [16],0
same,"Urine test - Glucose detection: number of dogs with grade +++, 3",obese dogs [2]; [17],1
same,"Urine test - Glucose detection: number of dogs with grade +++, 4",obese dogs [2]; [17],5
same,"Urine test - Glucose detection: number of dogs with grade ++, 2",obese dogs [2]; [17],0
same,"Urine test - Glucose detection: number of dogs with grade +, 1",obese dogs [2]; [17],0
same,"Urine test - Glucose detection: number of dogs with grade −, 0",obese dogs [2]; [17],0
same,Urinary glucose (GLU) excretion,"obese dogs [2]; enavogliflozin-administered groups, particularly 0.2 mg/kg",higher
